Data set [1] in a line: Stability of the Gd complex (pGd) by UV-visible spectrophotometry in HEPES buffer pH 7.4. The data set is classed as physicochemical. To be noted: pH 7.4, HEPES, [M]total=1 mM, [bpatcn]total=10 mM. Here is the method: Appreciably, the interaction between the lanthanide ions and the ligand was monitored by UV-visible spectrophotometry for a representative ion of intermediate size, namely Gd in dilute aqueous solutions, buffered with HEPES at pH 7.4. The value of pGd (pM=−log [M]free at pH 7.4, [M]total=1 mM and [bpatcn]total=10 mM), which allows a simple and direct comparison of the stabilities of the complexes under physiological conditions, found for thqtcn-SO3^6−(19) is similar to the value reported for the gadolinium complexes of diethylenetriaminepentaacetic acid (dtpa) (pGd=19.6), which are widely acknowledged as non-toxic.

Another data set is described as follows: Solubility observations. It is filed as physicochemical. To be noted: aqueous, potentiometric titration conditions. An excerpt: (§1) The three sulfonates are fully deprotonated under the experimental conditions used. The deprotonation constants of H9thqtcn-SO3^3+ are defined as Kai=[H9-iL]^(1-i) [H]^+/[H8-iL]^(2-i)+. Analysis of the potentiometric curves enabled precise determination of 6 deprotonation constants (pKa8=2.9(2), pKa7=5.34(5), pKa6=8.01(8), pKa5=8.78(1), pKa4=8.98(4), pKa3=10.25(2)), whereas it was possible only to obtain the sum pKa1+pKa2=(22.51(3)).
The elemental analyses of all the complexes are compatible with the presence of analytically pure [Ln(thqtcn)] species. These complexes are insoluble in all the commonly used laboratory solvents.
As hoped, this ligand results in Ln(III) complexes that are water-soluble at physiological pHs.

Data set [2] in a line: Potentiometric titration of the ligand with KOH: deprotonation constants. The data set is classed as physicochemical. To be noted: titration with KOH in KCl 0.1M, 298 K.
Text: as §1

For data set [3] the following is noted: gadolinium complexes of dtpa; cited from earlier work.

The values below come from US8268355B2, “Silica particle comprising an organolanthanide compound, preparation process therefor and uses thereof” (Commissariat a l'Energie Atomique, priority 2008, dated 2012).

As to “1,4,7-tris[2-(5-sulfo-8-hydroxyquinolinyl)methyl]-1,4,7-triaza-cyclononane [H6thqtcn-SO3]”, in data set [1], the “pGd (pM=-log [M]free)” value is 19. Also, the “solubility of the ligand” value in the data set “Solubility observations” was “high solubility”. Further, in data set [2], the pKa3 is on record as 10.25(2), the pKa4 was 8.98(4), the pKa5 is 8.78(1) and the pKa6 is reported as 8.01(8). In data set [2], the pKa7 is 5.34(5), the pKa8 is listed as 2.9(2) and the “sum pKa1+pKa2” value is on record as 22.51(3).

As for `O=C(O)CN(CCN(CC(=O)O)CC(=O)O)CCN(CC(=O)O)CC(=O)O` [dtpa, diethylenetriaminepentaacetic acid], in data set [3], the “pGd (reported value)” value is listed as 19.6.
